# Results from US5593960A, “Cyclic heptapeptide anti-inflammatory agent” (The Regents of the University of California, priority 1995, dated 1997).
# Tested on: phorbol-induced inflammation (edema) of mouse ears
# Assay: Inhibition of Mouse Ear Edema - Standard Protocol (topical, PMA-induced)
# Assay type: in vivo
# Details: for Inhibition of mouse ear edema: relative to PMA control
# Procedure: Cyclomarin-A was tested by measuring inhibition of phorbol-induced inflammation (edema) of mouse ears. […] The compound is topically applied in acetone to the inside pinnae of the ears of mice in a solution containing the edema-causing irritant, i.e. phorbol 12-myristate 13-acetate (PMA). PMA alone (2 microgram per ear) or in combination with varying amounts of cyclomarin-A was applied to the left ears of (5 mice per treatment group). Acetone was applied to all right ears. After a 3-hour and 20-minute incubation at 23° C., the mice were sacrificed, the ears removed and bores taken and weighed. Edema was measured by subtracting the weight of the right ear (acetone control) from the weight of the left ear (treated). The results were recorded as a percent decrease (inhibition) or percent increase (potentiation) in edema relative to the PMA control group edema.
substance,measurement,setting,value
cyclomarin-A,Inhibition of mouse ear edema,5 ug/ear with PMA 2 microgram per ear,3.0%
same,Inhibition of mouse ear edema,10 ug/ear with PMA 2 microgram per ear,39.0%
same,Inhibition of mouse ear edema,25 ug/ear with PMA 2 microgram per ear,57.0%
same,Inhibition of mouse ear edema,50 ug/ear with PMA 2 microgram per ear,88.0%
same,topical anti-inflammatory activity,general statement,exhibit topical anti-inflammatory activity
